Read-outs that look alike come from different tables or passages of the source.
Test system: rabbit isolated gastric glands
Experiment: aminopyrine accumulation in rabbit isolated gastric glands (anti-secretory activity, H+/K+ ATPase inhibitors)
Format: cell-based
Details: 10^-4 M, % inhibition of the maximum response to the secretagogue; for inhibition at 100 µM: Oryctolagus cuniculus
Method: Compounds of formula I were tested for anti-secretory activity by their ability to inhibit the highly specific proton transporting enzyme H^+ /K^+ ATPase.
Potential H^+ /K^+ ATPase inhibitors were evaluated by a technique involving the measurements of aminopyrine accumulation in rabbit isolated gastric glands. Aminopyrine accumulates in acid-secreting cells; therefore, uptake of aminopyrine is increased by secretagogues and an inhibitor of acid secretion will reduce the response to one or more secretagogues depending upon its site of action. […] The following test procedure is used:
Rabbit gastric glands are isolated from gastric mucosa from the corpus region of the stomach by a method based on one described by Berglindh T., Obrink, K. J., Acta Physiol. Scand.
Results are expressed as the % inhibition of the maximum response to the secretagogue induced by the test compound. An inhibitor of H^+ /K^+ ATPase would be expected to reduce the response to both secretagogues.

[1] = 14C-aminopyrine uptake stimulated by DBcAMP, read-out: % Inhibition to stimulation by DBcAMP
[2] = 14C-aminopyrine uptake stimulated by high K+, read-out: % Inhibition to stimulation by K+

| Compound | % Inhibition to stimulation by DBcAMP (14C-aminopyrine uptake stimulated by DBcAMP) | % Inhibition to stimulation by K+ (14C-aminopyrine uptake stimulated by high K+) | inhibition at 100 µM [1] | inhibition at 100 µM [2] |
| --- | --- | --- | --- | --- |
| 6-Ethoxy-2-(2-pyridyl)thiazolo[3,2-a]-benzimidazole and 7-ethoxy-2-(2-pyridyl)thiazolo[3,2-a]benzimidazole | 68% | 162% |  |  |
| CCc1ccc(-c2cn3c(nc4ccccc43)s2)nc1 [2-(2-(5-Ethylpyridyl))thiazolo[3,2-a]-benzaimidazole] |  |  | 56% | 142% |
| c1ccc(-c2cccc(-c3cn4c(nc5ccccc54)s3)n2)cc1 [2-[2-(6-Phenylpyridyl)]thiazolo[3,2-a]benzimidazole] |  |  | 22% | 381% |

Source: patent publication US4794123A, “Thiazolo- and thiazino- benzimidazoles and their use as anti-ulcer agents” (John Wyeth & Brother Limited, priority 1983, dated 1988)
